Tests used:
white blood cells [1] = assay: DHR 123 flow cytometry blood test: RH 123 fluorescence (ROS generation), channel 1 FL1-A; format: cell-based, human
Protocol: See FIG. 1 and FIG. 2 for exemplary flow diagrams of the method. Whole peripheral blood samples were obtained from subjects and collected in lithium heparin tubes. Samples were diluted 1:100 in electrolyte solution supplemented with 10% heat-inactivated fetal-bovine serum (FBS). Samples were incubated with 5 μg of dihydrorhodamine 123 (DHR 123) at 37° C. under 5% CO2 for 15 min. Cells were treated with 1 μM Phorbol-12-Myristate-13-Acetate (PMA), an exogenous stimulant, or an equal volume of PBS (negative control), and incubated for 30 min to 1 hr.
RBCs of the sample were lysed, fixed, and removed prior to flow cytometry analysis. Briefly, cells were lysed and partially fixed using 3% (v/v) lysis buffer and 1% (v/v) formaldehyde in phosphate-buffered saline (PBS). Samples were incubated for 2 min or until turbidity of the solution was resolved indicating essentially complete lysis of RBCs, and the sample centrifuged at 300×g for 5 min at room temperature (RT). RBC-containing supernatant was discarded, and remaining leukocytes were fixed using 3.7% (v/v) formaldehyde and centrifuged at 300×g at RT for 5 min. Samples were washed twice in FBS and centrifuged at 300×g at RT for 5 min. After washing, the cells were blocked with FC block (Invitrogen, USA) and 2% FBS for 30 min on ice and then incubated with staining buffer containing manufacturer-specified dilutions of fluorophore-conjugated antibodies specific for granulocytes (e.g., neutrophils, basophils, and/or eosinophils) or granulocyte activation (e.g., degranulation). Cells were washed twice and resuspended in PBS prior to analysis using a BD Accuri C6 Flow Cytometer (BD Biosciences, USA). Statistical analysis was performed using the FlowJo v10 (FlowJo, Oregon, USA).
A sample of whole blood was treated with DHIR 123 or mock at 37° C. for 15 min, then treated with phorbol 12-myristate 13-acetate (PMA) and incubated for 25 min. Red and white blood cells were lysed and fixed as described above. Flow cytometry results are shown in FIGS. 3A-3D for negative control (FIG. 3A), DHR 123 only treated control (FIG. 3B), DHR 123+PMA treated (FIG. 3C), as well as an overlap plot of each (FIG. 3D).
Provided below is an exemplary protocol for DHR 123 treatment and cell surface marker staining for DHR 123 flow cytometry blood test. • 1. Obtain a blood sample from a subject; e.g., • 1 mL blood sample for each person was obtained. • 2. Treat with DHR 123 and/or stimulant (e.g., PMA); e.g., • 100 μL whole blood was used for each group: 1) cell only control; 2) DHR 123 loaded cells; 3) DHR 123 loaded cells stimulated with stimulant (e.g., PMA). […] Fix and lyse the cells; e.g., • After stimulant treatment, the cells were fixed and red blood cells were concurrently lysed by adding lysis/fixation solution (e.g., 850 μL (800 μl PBS, 25 μL lyse solution, […])) and incubating 5 min at room temperature. • 4. Prepare cells for staining; e.g., • Cells were centrifuged and the supernatant discarded; • Formaldehyde solution (e.g., 500 μL, 3.7% formaldehyde) was added and incubated for 5 more minutes for fixation; • Cells were centrifuged and the supernatant discarded; • Cells were washed with 350 μL PBS twice, and then centrifuged before discarding the supernatant; • Cells were centrifuged and the supernatant discarded; • 5. Stain the cells; e.g., • 80 μL staining buffer (PBS+0.1% albumin+0.01% tween 20) was added, along with 5 μL of antibody solution for CD16, CD123 and CD193 and the sample incubated for 30 min at room temperature; • 6. Prepare cells for flow cytometry; e.g., • Cells were washed with PBS, centrifuged and the supernatant discarded; • Cells were resuspended in 125 μL PBS for subsequent flow cytometer analysis.
Flow cytometry analysis of human blood samples was performed following exposure to exogenous dust mite (“DM”) stimulant using time course measurements of RH 123 and PI fluorescence. […]

white blood cells [2] = assay: Propidium iodide (PI) staining by flow cytometry, channel 3 FL3-A; format: cell-based, human
Protocol: Cell viability determination using DNA staining was incorporated to improve flow cytometry analysis of granulocyte subpopulations. […] Throughout Example 2, additional exogenous stimulants were tested for their ability to instigate granulocyte release of ROS.
Flow cytometry analysis of human blood samples was performed following exposure to exogenous dust mite (“DM”) stimulant using time course measurements of RH 123 and PI fluorescence. Density plots and histograms were determined for samples containing: control cells only, DHR 123 only, DHR 123+PMA stimulant (positive control), DHR 123+DM stimulant, and DHR 123+3× DM stimulant, following incubation times of 0.5 hours (FIGS. 9A-9J), 1.5 hours (FIGS. 10A-10J), and 2.5 hours (FIGS. 11A-11J), respectively. Propidium iodide staining was used as a measure of cell viability.
Flow cytometry analysis of human blood samples was performed following exposure to exogenous DM, ragweed pollen (RWP), milk (MLK), cucumber (CUC), and basil (BAS) stimulants using RH 123 and PI fluorescence measurement. Density plots and histograms were determined for samples containing: control cells, DHR 123 only, DHR 123+PMA stimulant, DHR 123+DM stimulant, DHR 123+RWP stimulant (1×: 2.5 μL; 2×: 5.0 μL), DHR 123+MLK stimulant (5 μL), DHR 123+CUC stimulant (5 μL), and DHR 123+BAS stimulant (5 μL), following an incubation times of 0.5, 1.5, and 2.5 hours. See RH 123 (FL1-A) density plots at FIGS. 13A-13H; RH 123 (FL1-A) histograms at FIGS. 14A-14H; propidium iodide (PI) (FL3-A) density plots at FIGS. 15A-15H; PI (FL3-A) histograms at FIGS. 16A-16H).
DHR 123 and PI flow cytometry blood testing was repeated using increased amounts of stimulant (8 μL of DM stimulant or RWP stimulant per 100 μL blood) and incubated for 2.5 hours.

[3] = after 40-minute stimulation of PMA

With CCCCCCCCCCCCCC(=O)O[C@@H]1[C@@H](C)[C@@]2(O)[C@@H](C=C(CO)C[C@]3(O)C(=O)C(C)=C[C@@H]23)[C@@H]2C(C)(C)[C@]12OC(C)=O [PMA, Phorbol-12-Myristate-13-Acetate] the “activation of granulocyte populations (summary of Example 2)” value (white blood cells [1]) was “induced the activation of all granulocyte populations”, the “stimulation of lymphocytes (in words)” value (white blood cells [1]; CD33(−) lymphocyte population (M1)) was “not stimulated” and the “Mean FL1-A (0.5 h)” value (white blood cells [1]; R123, 0.5 h, PMA, RWP1 2.5 μL, MLK, CUC, BAS 5 μL per 100 μL blood (Table 5)) was 58,792.96. For the same compound, the “Mean FL1-A (1.5 h)” value (white blood cells [1]; R123, 1.5 h, PMA, RWP1 2.5 μL, MLK, CUC, BAS 5 μL per 100 μL blood (Table 5)) was 168,741.44, the “Mean FL1-A (2.5 h)” value (white blood cells [1]; R123, 2.5 h, PI stained, PMA, RWP1 2.5 μL, MLK, CUC, BAS 5 μL per 100 μL blood (Table 5)) was 361,510.02 and the “MFI (0.5 h) FL1-A” value (white blood cells [1]; RH 123, 0.5 h incubation, PMA or DM 2 μL/100 μL blood) was 5,076.27. For the same compound, the “MFI (1.5 h) FL1-A” value (white blood cells [1]; RH 123, 1.5 h incubation, PMA or DM 2 μL/100 μL blood) was 14,093.83, the “MFI (2.5 h) FL1-A” value (white blood cells [1]; RH 123, 2.5 h, increased stimulant, 8 μL DM or RWP per 100 μL blood (Table 7)) was 10,553.44 and the “MFI (2.5 h) FL1-A” value (white blood cells [1]; RH 123, 2.5 h incubation, PI stained, PMA or DM 2 μL/100 μL blood) was 9,353.98. For the same compound, the “RH 123 average intensity of peak” value (white blood cells [1]; [3]) was “about 10^6 unit”, the “RH 123 average intensity relative to negative control (DHR 123 only)” value (white blood cells [1]; [3]) was ~500 times and the “RH 123 fluorescence / ROS generation (in words)” value (white blood cells [1]; vs cells loaded with DHR 123 only) was “strong green fluorescence”. For the same compound, the “MFI (2.5 h) FL3-A” value (white blood cells [2]; PMA or DM 2 μL/100 μL blood (Table 4)) was 17,902.33, the “Mean FL3-A (2.5 h)” value (white blood cells [2]; PMA, RWP1 2.5 μL, MLK, CUC, BAS 5 μL per 100 μL blood (Table 6)) was 34,645.62 and the “MFI (2.5 h) FL3-A” value (white blood cells [2]; increased stimulant, 8 μL DM or RWP per 100 μL blood (Table 7)) was 11,914.00.
